# Test results reported in patent US9662377B2, “Therapeutic composition for treatment of glioblastoma” (REGENTS OF THE UNIVERSITY OF MINNESOTA, priority 2010, dated 2017).
# Test system: PBMCs from CMV sera-positive donors
# Experiment: CMV assay (pp65-dependent IFNγ production)
# Assay type: cell-based, human
# Protocol: 5×10^5 HLA-A2^+ iDCs were pulsed with 100 μg of tumor lysates derived in 5% or 20% O2+/−10 μg of pp65 HLA-A2-restricted CMV antigen (NLVPMVATV) (SEQ ID NO: 15) and matured as described in the methods section. Following maturation, DCs were washed 3 times, and 5×10^5 PBMCs from CMV sera-positive donors were added to DCs. CMV sera-negative PBMCs were used as a negative control. Cells were incubated for 48 h, and supernatant was analyzed by cytometric bead array (BD Biosciences) for IFNγ. Cells were cultured for an additional 24 h, stained with anti-CD8, pp65 pentamer (ProImmune), and intracellularly stained for IFNγ production.
# The inventors established an assay to determine if TLs altered DC-mediated CD8 T cell priming from a defined antigen not present in the TLs. To accomplish this, TLs were mixed with pp65 peptide, a specific marker antigen with well-defined CD8 T cell responses. […] Soluble IFNγ in the tissue culture supernatant was quantified as a measure of CD8 T cell activation. There was a background of […] of IFNγ detected in the supernatant when TLs were pulsed in the absence of pp65, possibly due to activation of T cells or natural killer (NK) cells irrespective of pp65 (FIG. 8B).
sequence,measurement,setting,value
NLVPMVATV [pp65],Response of sera-negative donor PBMCs,CMV sera-negative donor PBMCs,did not respond
same,IFNγ level above background,sera-positive donor PBMCs primed with pp65 alone (no TLs),2-4 fold
